T/C data for 14 molecules are collected here from PubChem BioAssay AID248 (DTP/NCI, 2004).

Several values for one entry are separate records, joined by “and”; a condition that tells them apart may be missing. Identical values can stand only once. Toxic doses and inconclusive results are not listed.

For the test, the system named is L1210 leukemia ip in BDF1 mice, survival T/C. The test can be described thus: NCI In Vivo Anticancer Drug Screen. Data for tumor model L1210 Leukemia (intraperitoneal) in B6D2F1 (BDF1) mice. To be noted: endpoint: mean survival time, higher = longer survival. Put shortly: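 Transplanted-tumor mice were given test agent; controls received vehicle only. Survival readings from the two groups were divided (treated over control).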

[1] abbreviates: dose: 400.0 mg/kg/injection, schedule: Q01DX001 (ip), vehicle: other.

Regarding `c1ccc(N2CCNCC2)cc1` (tested in a mixture with another compound), the T/C runs as follows: (dose: 5.0 mg/kg/injection, schedule: Q01DX001 (ip), vehicle: saline) 105 % of control and 101 % of control and 97 % of control; (dose: 10.0 mg/kg/injection, schedule: Q01DX001 (ip), vehicle: saline) 105 % of control and 97 % of control; (dose: 20.0 mg/kg/injection, schedule: Q01DX001 (ip), vehicle: saline) 105 % of control and 94 % of control and 95 % of control; (dose: 40.0 mg/kg/injection, schedule: Q01DX001 (ip), vehicle: saline) 102 % of control and 100 % of control; (dose: 80.0 mg/kg/injection, schedule: Q01DX001 (ip), vehicle: saline) 100 % of control; (dose: 100.0 mg/kg/injection, schedule: Q01DX001 (ip), vehicle: saline) 98 % of control. In addition, the T/C (dose: 200.0 mg/kg/injection, schedule: Q01DX001 (ip), vehicle: saline) was 96 % of control.

Regarding `COc1ccc(C(CC(=O)c2ccccc2)SCCN2CCOCC2)cc1` (stereo not given), the T/C was 95 % of control (dose: 100.0 mg/kg/injection, schedule: Q04DX003 (ip), vehicle: saline with Tween-80) and 99 % of control (dose: 200.0 mg/kg/injection, schedule: Q04DX003 (ip), vehicle: saline with Tween-80).

`COC(=O)c1nc(N)n[nH]1`: the T/C is, setting by setting: (dose: 100.0 mg/kg/injection, schedule: Q01DX001 (ip), vehicle: other) 110 % of control; (dose: 100.0 mg/kg/injection, schedule: Q01DX009 (ip), vehicle: saline with Tween-80) 106 % of control; (dose: 100.0 mg/kg/injection, schedule: Q04DX003 (ip), vehicle: other) 102 % of control; (dose: 200.0 mg/kg/injection, schedule: Q01DX001 (ip), vehicle: other) 95 % of control; (dose: 200.0 mg/kg/injection, schedule: Q01DX009 (ip), vehicle: saline with Tween-80) 94 % of control; (dose: 200.0 mg/kg/injection, schedule: Q04DX003 (ip), vehicle: other) 105 % of control. For the same molecule, the T/C is, setting by setting: under setting [1], 97 % of control; (dose: 400.0 mg/kg/injection, schedule: Q01DX009 (ip), vehicle: saline with Tween-80) 95 % of control; (dose: 400.0 mg/kg/injection, schedule: Q04DX003 (ip), vehicle: other) 102 % of control.

For the molecule `CC1CC[N-]CC1.CC1CC[N-]CC1.CC1CC[N-]CC1.CC1CC[N-]CC1.[Pt+4]`, the T/C is 100 % of control (dose: 0.39 mg/kg/injection, schedule: Q01DX009 (ip), vehicle: saline); 97 % of control (dose: 0.39 mg/kg/injection, schedule: Q04DX003 (ip), vehicle: saline); 92 % of control (dose: 0.78 mg/kg/injection, schedule: Q01DX009 (ip), vehicle: saline); 100 % of control (dose: 0.78 mg/kg/injection, schedule: Q04DX003 (ip), vehicle: saline); 94 % of control (dose: 1.56 mg/kg/injection, schedule: Q01DX009 (ip), vehicle: saline); 102 % of control (dose: 1.56 mg/kg/injection, schedule: Q04DX003 (ip), vehicle: saline). The T/C (dose: 3.12 mg/kg/injection, schedule: Q04DX003 (ip), vehicle: saline) was 96 % of control.

For the molecule `O=NN(CCCl)C(=O)Nc1ccc(CCO)cc1`, the T/C is, setting by setting: (dose: 0.25 mg/kg/injection, schedule: Q01DX009 (ip), vehicle: saline) 112 % of control; (dose: 0.38 mg/kg/injection, schedule: Q01DX009 (ip), vehicle: saline) 114 % of control; (dose: 0.59 mg/kg/injection, schedule: Q01DX009 (ip), vehicle: saline) 164 % of control; (dose: 0.89 mg/kg/injection, schedule: Q01DX009 (ip), vehicle: saline) 205 % of control; (dose: 7.0 mg/kg/injection, schedule: Q01DX009 (ip), vehicle: saline) 202 % of control; (dose: 10.0 mg/kg/injection, schedule: Q01DX009 (ip), vehicle: saline) 109 % of control. The T/C reads like this: (dose: 78.0 mg/kg/injection, schedule: Q01DX001 (ip), vehicle: other) 185 % of control; (dose: 119.0 mg/kg/injection, schedule: Q01DX001 (ip), vehicle: other) 201 % of control; (dose: 178.0 mg/kg/injection, schedule: Q01DX001 (ip), vehicle: carboxymethylcellulose (CMC)) 242 % of control; (dose: 178.0 mg/kg/injection, schedule: Q01DX001 (ip), vehicle: other) 160 % of control and 235 % of control; (dose: 266.0 mg/kg/injection, schedule: Q01DX001 (ip), vehicle: carboxymethylcellulose (CMC)) 226 % of control; (dose: 266.0 mg/kg/injection, schedule: Q01DX001 (ip), vehicle: other) 193 % of control. Further, the T/C (dose: 400.0 mg/kg/injection, schedule: Q01DX001 (ip), vehicle: carboxymethylcellulose (CMC)) is 276 % of control; the T/C under setting [1] was 182 % of control; the T/C (dose: 600.0 mg/kg/injection, schedule: Q01DX001 (ip), vehicle: carboxymethylcellulose (CMC)) is 244 % of control.

As for `CC1(C)C(=O)CC[C@@]2(C)C1=CC[C@@H]1[C@@H]2CC[C@@]2(C)[C@H]1CC[C@]2(C)O`, the T/C is, setting by setting: (dose: 50.0 mg/kg/injection, schedule: Q01DX Z (sc), vehicle: steriod suspending solution) 91 % of control; (dose: 250.0 mg/kg/injection, schedule: Q01DX Z (sc), vehicle: steriod suspending solution) 96 % of control; (dose: 500.0 mg/kg/injection, schedule: Q01DX Z (sc), vehicle: steriod suspending solution) 101 % of control.

Consider `NCCSC1(O)C(=O)c2ccccc2C1=O`, for which the T/C was 97 % of control (dose: 37.5 mg/kg/injection, schedule: Q04DX003 (ip), vehicle: saline); 104 % of control (dose: 75.0 mg/kg/injection, schedule: Q01DX001 (ip), vehicle: saline); 116 % of control (dose: 75.0 mg/kg/injection, schedule: Q04DX003 (ip), vehicle: saline); 110 % of control (dose: 150.0 mg/kg/injection, schedule: Q01DX001 (ip), vehicle: saline); 111 % of control (dose: 150.0 mg/kg/injection, schedule: Q04DX003 (ip), vehicle: saline).

Turning to `N#Cc1c(O)c(Cl)c(Cl)c(O)c1C#N`, the T/C runs as follows: (dose: 100.0 mg/kg/injection, schedule: Q04DX003 (ip), vehicle: Klucel (hydroxypropylcellulose) (HPC)) 109 % of control; (dose: 200.0 mg/kg/injection, schedule: Q04DX003 (ip), vehicle: Klucel (hydroxypropylcellulose) (HPC)) 96 % of control; (dose: 400.0 mg/kg/injection, schedule: Q04DX003 (ip), vehicle: Klucel (hydroxypropylcellulose) (HPC)) 96 % of control.

`O=CC(NC(=O)c1ccccc1)C(O)C(O)C(O)CO` (stereo not given): the T/C is 98 % of control (dose: 100.0 mg/kg/injection, schedule: Q01DX001 (ip), vehicle: Klucel (hydroxypropylcellulose) (HPC)); 105 % of control (dose: 200.0 mg/kg/injection, schedule: Q01DX001 (ip), vehicle: Klucel (hydroxypropylcellulose) (HPC)); 105 % of control (dose: 400.0 mg/kg/injection, schedule: Q01DX001 (ip), vehicle: Klucel (hydroxypropylcellulose) (HPC)).

As for `CC(C)(C)NCC1CCCC1=O` (stereo not given), the T/C runs as follows: (dose: 100.0 mg/kg/injection, schedule: Q04DX002 (ip), vehicle: gum acacia) 101 % of control; (dose: 200.0 mg/kg/injection, schedule: Q04DX002 (ip), vehicle: gum acacia) 105 % of control.

On to `CCOC(/C=C/c1ccccc1)OCC`, for which the T/C runs as follows: (dose: 100.0 mg/kg/injection, schedule: Q04DX003 (ip), vehicle: saline) 93 % of control; (dose: 200.0 mg/kg/injection, schedule: Q04DX003 (ip), vehicle: saline) 93 % of control; (dose: 400.0 mg/kg/injection, schedule: Q04DX003 (ip), vehicle: saline) 98 % of control.

In the case of `CCCCCCCCCCCC(C)NCc1ccccc1` (stereo not given), the T/C reads like this: (dose: 6.25 mg/kg/injection, schedule: Q01DX009 (ip), vehicle: saline with Tween-80) 89 % of control; (dose: 12.5 mg/kg/injection, schedule: Q01DX009 (ip), vehicle: saline with Tween-80) 89 % of control; (dose: 25.0 mg/kg/injection, schedule: Q01DX009 (ip), vehicle: saline with Tween-80) 97 % of control; (dose: 25.0 mg/kg/injection, schedule: Q04DX003 (ip), vehicle: saline) 94 % of control; (dose: 35.0 mg/kg/injection, schedule: Q01DX009 (ip), vehicle: acetone) 92 % of control.

As for `CCCCCC#CC(=O)OC(C)C`, the T/C is, setting by setting: (dose: 100.0 mg/kg/injection, schedule: Q04DX002 (ip), vehicle: saline with Tween-80) 102 % of control; (dose: 200.0 mg/kg/injection, schedule: Q04DX002 (ip), vehicle: saline with Tween-80) 102 % of control; (dose: 400.0 mg/kg/injection, schedule: Q04DX002 (ip), vehicle: saline with Tween-80) 102 % of control.

For `COc1ccc(/C=N/NC(=O)c2ccc(N)cc2)c(OC)c1`, the T/C runs as follows: (dose: 100.0 mg/kg/injection, schedule: Q04DX002 (ip), vehicle: saline) 101 % of control; (dose: 200.0 mg/kg/injection, schedule: Q04DX002 (ip), vehicle: saline) 108 % of control; (dose: 400.0 mg/kg/injection, schedule: Q04DX002 (ip), vehicle: saline) 97 % of control.
